Source: US20240165243A1, “EGFR DEGRADERS AND METHODS OF USE” (BeiGene Switzerland GmbH, priority 2021, published 2024)

Legend:
EGFR (Del19/T790M/C797S) = assay: Cell degradation HTRF assay, H1975-clone #28 cells; format: cell-based; settings: H1975-clone #28 (Del19/T790M/C797S) cells, 16 h treatment; for DC50: HTRF, read-out: H1975-clone#28 DTC DC50; for H1975-clone#28 DTC Dmax (%): maximum percentage of degradation
Outline: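 H1975 clones #25 and #28 were treated 16 h at 37° C, 5% CO2 with 8 doses (top 10 uM, 5-fold dilution) in 0.2% DMSO medium. EGFR in lysates read by HTRF (665/620 nm); degradation % relative to DMSO high control; DC50 from 4-parameter fit, Dmax = maximal degradation.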

EGFR (L858R/T790M/C797S) = EGFR (L858R/T790M/C797S) (Homo sapiens, UniProt P00533, C797S/L858R/T790M); assay: Cell degradation HTRF assay, H1975-clone #25 cells; format: cell-based; settings: H1975-clone #25 (L858R/T790M/C797S) cells, 16 h treatment; for DC50: HTRF, read-out: H1975-clone#25 LTC DC50; for Dmax: maximum percentage of degradation, read-out: H1975-clone#25 LTC Dmax (%)
Experimental: Cell Degradation of Example 124-189
H1975-#28 and H1975-#25 cells are treated with compounds diluted in 0.2% DMSO cell culture medium on day 2, incubate for 16 h, 37° C., 5% CO2. the final concentration of compounds in all assay is start with 10 uM, 5-fold dilution, total 8 doses were included.
After 16 h treatment, add HTRF lysis buffer to each well; seal the plate and incubate 1 hour at room temperature on a plate shaker; Once the cells are lysed, 16 μL of cell lysate are transferred to a PE 384-well HTRF detection plate; 4 μL of pre-mixed HTRF antibodies are added to each well; Cover the plate with a plate sealer, spin 1000 rpm for 1 min, Incubate overnight at room temperature; Read on BMG PheraStar with HTRF protocol (337 nm-665 nm-620 nm).
The inhibition (degradation) percentage of the compound was calculated by the following equation:
Inhibition percentage of Compound=100−100×(Signal−low control)/(High control−low control), wherein signal=each test compound group.
High control=Cell group with added DMSO and without compound, indicating microplate readings without EGFR degradation;
Dmax is the maximum percentage of inhibition (degradation).
The IC50 (DC50) value of a compound can be obtained by fitting the following equation
Y=Bottom+(TOP−Bottom)/(1+((IC50/X)^hillslope))
Wherein, X and Y are known values, and IC50, Hillslope, Top and Bottom are the parameters obtained by fitting with software. Y is the inhibition percentage (calculated from the equation), X is the concentration of the compound; IC50 is the concentration of the compound when the 50% inhibition is reached. The smaller the IC50 value is, the stronger the inhibitory ability of the compound is. Vice versa, the higher the IC50 value is, the weaker the ability the inhibitory ability of the compound is; Hillslope represents the slope of the fitted curve, generally around 1*; Bottom represents the minimum value of the curve obtained by data fitting, which is generally 0%±20%; Top represents the maximum value of the curve obtained by data fitting, which is generally 100%±20%. The experimental data were fitted by calculating and analyzing with Dotmatics data analysis software. When Dmax<50%, DC50 will be automatically assigned as larger than […].

Chain of EGFR (L858R/T790M/C797S) (P00533 25-1210 T790M/C797S/L858R): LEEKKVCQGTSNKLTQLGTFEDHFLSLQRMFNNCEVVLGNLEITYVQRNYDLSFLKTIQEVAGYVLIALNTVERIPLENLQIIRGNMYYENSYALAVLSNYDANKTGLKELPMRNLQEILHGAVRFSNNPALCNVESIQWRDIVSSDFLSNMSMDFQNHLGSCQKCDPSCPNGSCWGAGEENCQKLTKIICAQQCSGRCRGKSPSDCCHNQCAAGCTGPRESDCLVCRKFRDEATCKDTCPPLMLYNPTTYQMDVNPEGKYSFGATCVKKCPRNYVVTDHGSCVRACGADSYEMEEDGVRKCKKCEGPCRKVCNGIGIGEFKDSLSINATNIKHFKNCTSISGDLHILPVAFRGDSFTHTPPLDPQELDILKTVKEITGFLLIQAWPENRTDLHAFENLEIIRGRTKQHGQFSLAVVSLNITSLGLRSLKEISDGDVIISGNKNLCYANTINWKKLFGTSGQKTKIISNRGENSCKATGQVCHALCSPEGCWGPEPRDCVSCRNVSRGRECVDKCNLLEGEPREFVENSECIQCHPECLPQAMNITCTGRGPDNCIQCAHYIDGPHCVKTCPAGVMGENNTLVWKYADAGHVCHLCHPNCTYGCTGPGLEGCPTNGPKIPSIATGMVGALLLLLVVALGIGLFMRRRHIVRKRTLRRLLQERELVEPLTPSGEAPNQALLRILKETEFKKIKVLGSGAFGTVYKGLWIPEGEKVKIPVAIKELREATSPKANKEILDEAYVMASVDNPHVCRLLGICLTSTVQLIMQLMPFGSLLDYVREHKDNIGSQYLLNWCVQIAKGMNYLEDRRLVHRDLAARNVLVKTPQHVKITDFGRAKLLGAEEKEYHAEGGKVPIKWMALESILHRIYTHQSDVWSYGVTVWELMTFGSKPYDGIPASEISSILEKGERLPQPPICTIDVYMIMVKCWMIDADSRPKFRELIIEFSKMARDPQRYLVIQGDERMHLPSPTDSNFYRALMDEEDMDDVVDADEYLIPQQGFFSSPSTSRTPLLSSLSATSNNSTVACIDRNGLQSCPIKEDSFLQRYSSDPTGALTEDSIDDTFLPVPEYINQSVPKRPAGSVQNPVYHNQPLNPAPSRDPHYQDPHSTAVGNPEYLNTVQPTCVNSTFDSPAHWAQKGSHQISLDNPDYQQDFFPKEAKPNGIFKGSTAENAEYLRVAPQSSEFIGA

| Compound | DC50 (EGFR (Del19/T790M/C797S)) | H1975-clone#28 DTC Dmax (%) (EGFR (Del19/T790M/C797S)) | DC50 (EGFR (L858R/T790M/C797S)) | Dmax (EGFR (L858R/T790M/C797S)) |
| --- | --- | --- | --- | --- |
| CCOc1cc(N2CCC(N3CCN(CCc4cccc5c4n(C)c(=O)n5C4CCC(=O)NC4=O)CC3)CC2)c(CC)cc1Nc1ncc(Br)c(Nc2cnc3ccc(F)cc3c2P(C)(C)=O)n1 (centres unmarked) [Example 124, 3-(4-(2-(4-(1-(4-((5-bromo-4-((4-(dimethylphosphoryl)-6-fluoroquinolin-3-yl)amino)pyrimidin-2-yl)amino)-5-ethoxy-2-ethylphenyl)piperidin-4-yl)piperazin-1-yl)ethyl)-3-methyl-2-oxo-2,3-dihydro-1H-benzol[d]imidazol-1-yl) piperidine-2,6-dione] | 1.4 nM | 73% | 3.4 nM | 77% |
| CCOc1cc(N2CCC(N3CCN(CCc4cccc5c4n(C)c(=O)n5C4CCC(=O)NC4=O)CC3)CC2)c(CC)cc1Nc1ncc(Br)c(Nc2cnc3cc(F)ccc3c2P(C)(C)=O)n1 (centres unmarked) [Example 147, 3-(4-(2-(4-(1-(4-((5-bromo-4-((4-(dimethylphosphoryl)-7-fluoroquinolin-3-yl)amino)pyrimidin-2-yl)amino)-5-ethoxy-2-ethylphenyl)piperidin-4-yl)piperazin-1-yl)ethyl)-3-methyl-2-oxo-2,3-dihydro-1H-benzol[d]imidazol-1-yl) piperidine-2,6-dione] | 0.4 nM | 84% | 15.3 nM | 77% |
